# Measured values reported in ChEMBL document CHEMBL1123773, “The role of solvent-accessible surface area in determining partition coefficients” (J Med Chem, 1987).
# What was measured:
# [1] = Partition coefficient (logP) (chloroform); conditions: octanol/water
# [2] = Partition coefficient (logP) (hexane); conditions: octanol/water
# [3] = Partition coefficient (logP) (ether); conditions: octanol/water
# [4] = Partition coefficient (logP); conditions: octanol/water
# [5] = Diffusion constant for permeability of stratum corneum; type: ADME
# [6] = Partition coefficient (logP) (benzene); conditions: octanol/water
# [7] = Partition coefficient (logP) (carbon tetrachloride); conditions: octanol/water
Structure (SMILES),logP [1],logP [2],logP [3],logP [4],Log k [5],logP [6],logP [7]
COc1cccc(C=O)c1O,2.3,0.53,1.35,1.37,,,
CCC(N)CC,0.81,-0.48,-0.07,0.57,,,
O=C(O)c1cccc([N+](=O)[O-])c1,0.48,-1.22,1.97,,,,
CCCCCCCO [1-HEPTANOL],2.41,1.01,2.4,2.41,,,
CCCCCO [1-PENTANOL],1.05,-0.4,1.2,,,,
Nc1ccccc1[N+](=O)[O-] [2-NITROANILINE],2.13,0.25,1.95,1.85,,,
O=[N+]([O-])c1cccc(O)c1 [3-NITRO-PHENOL],0.6,-1.4,2.18,,,,
Nc1cccc([N+](=O)[O-])c1 [3-NITROANILINE],1.61,-0.62,1.71,,,,
O=Cc1ccc(O)cc1 [4-HYDROXYBENZALDEHYDE],-0.12,-0.95,1.1,,,,
COC(C)=O [ACETIC ACID METHYL ESTER],1.16,-0.26,0.43,,,,
CC(C)=O [ACETONE],0.24,-0.91,-0.21,,,,
C[C@]12CCC(=O)C=C1CC[C@@H]1[C@@H]2[C@@H](O)C[C@]2(C=O)[C@@H](C(=O)CO)CC[C@@H]12 [ALDOSTERONE],,,,,0.48,,
Nc1ccccc1 [ANILINE],1.42,-0.3,0.85,,,,
Nc1ccccc1C(=O)O [ANTHRANILIC ACID],-1.15,-2.12,1.43,1.21,,,
Oc1ccc2ccccc2c1 [BETANAPHTHOL],1.74,0.3,1.77,,,1.74,0.99
CCCCN [BUTYLAMINE],0.56,-0.62,0.11,0.74,,,
O=C(O)CCl [CHLOROACETIC ACID],-1.92,-3.14,0.37,0.22,,,
C[C@]12C[C@H](O)[C@H]3[C@@H](CCC4=CC(=O)CC[C@@]43C)[C@@H]1CC[C@@H]2C(=O)CO [CORTICOSTERONE],,,,,1.78,,
C[C@]12CCC(=O)C=C1CC[C@@H]1[C@@H]2C(=O)C[C@@]2(C)[C@H]1CC[C@]2(O)C(=O)CO [CORTISONE],,,,,1,,
C[C@]12CCC(=O)C=C1CC[C@@H]1[C@@H]2CC[C@@]2(C)[C@H]1CC[C@]2(O)C(=O)CO [CORTODOXONE],,,,,1.88,,
C[C@]12CC[C@H]3[C@@H](CCC4=CC(=O)CC[C@@]43C)[C@@H]1CC[C@@H]2C(=O)CO [DESOXYCORTICOSTERONE],,,,,2.65,,
CCOC(C)=O [ETHYL ACETATE],1.8,0.29,0.93,,,,
CCN [ETHYLAMINE],-0.35,-1.77,-1.18,-0.3,,,
COc1ccccc1O [GUAIACOL],1.7,0.36,1.44,1.32,,,

Structure (SMILES),logP [1],logP [2],logP [3],logP [4],Log k [5],logP [6],logP [7]
CCCCCC(=O)O [HEXANOATE],1.15,-0.46,1.95,,,,
Oc1ccc(O)cc1 [HYDROQUINONE],0.23,0.05,0.38,,,0.15,0.04
CC(=O)[C@@]1(O)CC[C@H]2[C@@H]3CC[C@@H]4C[C@H](O)CC[C@]4(C)[C@H]3CC[C@@]21C [HYDROXYPREGNENOLONE],,,,,2.78,,
CC(=O)[C@@]1(O)CC[C@H]2[C@@H]3CCC4=CC(=O)CC[C@]4(C)[C@H]3CC[C@@]21C [HYDROXYPROGESTERONE],,,,,2.78,,
CC(C)CO [ISOBUTANOL],0.34,-0.6,0.53,0.65,,,
COc1ccc(C=O)cc1O [ISOVANILLIN],1.18,-0.85,0.82,0.97,,,
COc1ccc(O)cc1 [MEQUINOL],0.23,-0.76,1.47,,,,
CO [METHYL ALCOHOL],-1.26,-2.8,-1.15,-0.77,,,
O=[N+]([O-])c1ccccc1O [NITROPHENOLATE],2.35,1.4,2.18,,,,
O=[N+]([O-])c1ccc(O)cc1 [P-NITROPHENOL],0.2,-2,2.01,,,,
O=C(O)c1ccc(O)cc1 [PARABEN],-0.5,-1.82,1.42,,,,
CCCC(C)C1(CC)C(=O)NC(=O)NC1=O (centres undefined) [PENTOBARBITAL],1.38,-1.3,1.28,2.1,,,
CCC1(c2ccccc2)C(=O)NC(=O)NC1=O [PHENOBARBITAL],0.62,-2.22,1.51,1.71,,,
Oc1ccccc1 [PHENOL],0.37,-0.7,1.64,,,0.36,-0.36
CC(=O)[C@H]1CC[C@H]2[C@@H]3CC=C4C[C@@H](O)CC[C@]4(C)[C@H]3CC[C@]12C [PREGNENOLONE],,,,,3.17,,
CC(=O)[C@H]1CC[C@H]2[C@@H]3CCC4=CC(=O)CC[C@]4(C)[C@H]3CC[C@]12C [PROGESTERONE],,,,,3.18,,
CCC(=O)O [PROPIONIC ACID],-0.96,-2.14,0.27,,,,
CCCN [PROPYLAMINE],0.26,,-0.54,0.28,,,
O=C(O)c1ccccc1O [SALICYLIC ACID],0.58,-0.57,2.37,,,0.5,0
CC(C)(C)N [TERT-BUTYLAMINE],0.54,-0.48,-0.26,0.27,,,
C[C@]12CC[C@H]3[C@@H](CCC4=CC(=O)CC[C@@]43C)[C@@H]1CC[C@@H]2O [TESTOSTERONE],,,,,2.6,,
O=C(O)C(Cl)(Cl)Cl [TRICHLOROACETIC ACID],-0.69,-2.63,1.21,1.33,,,
CCCCC(=O)O [VALERIC ACID],0.28,-1,1,1.39,,,
COc1cc(C=O)ccc1O [VANILLIN],1.42,-0.72,0.96,,,,
